Test results: publication PMC9997069 (Molecular Pharmaceutics, 2023)
Values joined by “and” are separate entries in the source; they are usually repeats but may differ in a detail not shown here. Equal entries are not always repeated. “Also recorded” adds a separate entry of the source. Where two headings read alike, the source gives them in different places. Blank lines part the entries; values can stand above or below the compound they belong to.

Tests used:
[1] = system: BSA; conditions: cited from earlier work
[2] = system: PLK2 and PLK3; parameters: method as in PMID 21459796, PMID 21809214, PMID 19690138; conditions: cited from earlier work
[3] = Protonation equilibria by UV-vis pH titration with DFT assignment; type: physicochemical; conditions: for pKa: aqueous solution
[4] = target: T1, HSA (Homo sapiens, UniProt P02768); assay: Competitive binding experiments with warfarin (site 1) and ibuprofen (site 2)
T1 construct: purchased Sigma-Aldrich
T1 sequence (P02768 25-609): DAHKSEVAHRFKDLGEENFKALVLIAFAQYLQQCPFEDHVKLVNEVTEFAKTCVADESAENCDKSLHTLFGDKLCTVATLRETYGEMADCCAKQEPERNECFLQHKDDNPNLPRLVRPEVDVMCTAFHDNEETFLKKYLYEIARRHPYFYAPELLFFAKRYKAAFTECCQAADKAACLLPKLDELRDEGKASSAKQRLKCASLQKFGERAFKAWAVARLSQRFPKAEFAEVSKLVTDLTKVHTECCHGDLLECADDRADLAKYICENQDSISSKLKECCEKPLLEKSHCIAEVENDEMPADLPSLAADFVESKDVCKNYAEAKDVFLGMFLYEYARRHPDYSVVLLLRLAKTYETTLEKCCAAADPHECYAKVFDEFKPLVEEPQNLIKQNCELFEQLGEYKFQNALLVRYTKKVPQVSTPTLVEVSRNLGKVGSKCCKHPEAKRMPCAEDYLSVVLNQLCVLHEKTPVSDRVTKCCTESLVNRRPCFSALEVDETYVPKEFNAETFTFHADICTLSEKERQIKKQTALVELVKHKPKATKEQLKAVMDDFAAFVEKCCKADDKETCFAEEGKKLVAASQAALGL
Method: The HSA binding experiments were performed at 310 K using [HSA]:[warfarin] and [HSA]:[ibuprofen] ratios of 1. […] Synchronous fluorescence spectroscopy experiments were performed to analyze the changes in the microenvironment polarity around fluorescent residues of HSA. When the value of the intervals (Δλ) between the excitation and emission wavelengths is set at 15 nm, synchronous fluorescence spectra offer characteristic information on tyrosine residues.[61]−[63]

[5] = target: T2, human serum albumin (HSA) (Homo sapiens, UniProt P02768); assay: Binding to HSA by Trp214 fluorescence quenching titration; conditions: for n^c ± 2σ number of binding sites / Kd / n^u ± 2σ: HSA; for n^c ± 2σ number of binding sites: inner filter corrected
T2 construct: purchased Sigma-Aldrich
T2 sequence (P02768 25-609): as above
Method: The emission fluorescence intensity was collected at 320 nm to avoid the fluorescence emission of the drugs. […] The excitation and emission slits were fixed at 1 and 5 nm, respectively. The step and dwell times were 1 nm and 0.1 s, respectively.
Enthalpy (ΔH) and entropy (ΔS) changes were obtained from the van′t Hoff equation [drawing 6] 6 and free energy (ΔG) changes were calculated from [drawing 7] 7 The van’t Hoff plots are shown in Figure 9, and the corresponding thermodynamic parameters are collected in Table 2. […] Proton-releasing processes in protein–ligand interactions generally result in a positive enthalpy.[64]

[6] = system: panel of 48 other kinases; parameters: method as in PMID 21459796, PMID 21809214, PMID 19690138; conditions: cited from earlier work
[7] = system: cancer cell lines; parameters: method as in PMID 19690138; conditions: tested cancer cell lines; cited from earlier work
[8] = target: T1, HSA; conditions: cited from earlier work
[9] = cited from earlier work
[10] = system: multiple leukemia cell lines; parameters: method as in PMID 26478211; conditions: cited from earlier work
[11] = system: xenograft mouse models; parameters: method as in PMID 26478211; conditions: cited from earlier work
[12] = equilibrium between spectroscopic species 1 (charge 0/+1) and 2 (charge +2)
[13] = HSA/drug complex, van't Hoff plot 298-310 K
[14] = noncompartmental analysis, 1 hour infusion, 25 to 200 mg on day 1 and day 8 of a 21 day course

SMILES: C[C@@H](Oc1cc(-c2cnn(C3CCNCC3)c2)cnc1N)c1c(Cl)ccc(F)c1Cl [Crizotinib]
Ka^c binding constant ([1]; 309 K, listed as crizotinib): 3.4 × 10^4 M^–1
Ka^c binding constant ([1]; 309 K): 3.43 × 10^4 M^–1

pKa [3, 12]: 1.4
Kd ([4]; 310 K, [HSA]:[warfarin] ratio of 1, 5 μM, read-out: binding constant to HSA in the presence of warfarin (converted)): 1040 µM
preferential binding site into HSA ([4]; competitive experiments with warfarin and ibuprofen): site 1; also recorded: site I
binding constant to HSA, times lower than for RO3280 ([5]; 310 K): 25 times
n^c ± 2σ number of binding sites ([5]; 298 K): 1.19 ± 0.06
Kd ([5]; 298 K, pH 7.4, inner filter corrected, read-out: Ka^c binding constant (converted)): 4.81 µM
n^u ± 2σ ([5]; 298 K, without inner filter corrections): 1.29 ± 0.10
Kd ([5]; 298 K, without inner filter corrections, read-out: log Ka^u ± 2σ (converted)): 0.871 µM
n^c ± 2σ number of binding sites ([5]; 303 K): 1.15 ± 0.03
Kd ([5]; 303 K, pH 7.4, inner filter corrected, read-out: Ka^c binding constant (converted)): 8.26 µM
n^u ± 2σ ([5]; 303 K, without inner filter corrections): 1.28 ± 0.05
Kd ([5]; 303 K, without inner filter corrections, read-out: log Ka^u ± 2σ (converted)): 1.07 µM
n^c ± 2σ number of binding sites ([5]; 310 K): 1.11 ± 0.05
Kd ([5]; 310 K, pH 7.4, inner filter corrected, read-out: Ka^c binding constant (converted)): 11.4 µM
n^u ± 2σ ([5]; 310 K, without inner filter corrections): 1.23 ± 0.06
Kd ([5]; 310 K, without inner filter corrections, read-out: Ka^u binding constant to HSA (converted)): 1.79 µM
ΔG^0 ([5]; HSA/drug complex, 298 K): –30.22 kJ mol^–1
ΔG^0 ([5]; HSA/drug complex, 303 K): –29.80 kJ mol^–1
ΔG^0 ([5]; HSA/drug complex, 310 K): –29.20 kJ mol^–1
ΔH^0 [5, 13]: –55.61 kJ mol^–1
ΔS^0 [5, 13]: –85.20 J K^–1 mol^–1
SMILES: C[C@@H](Oc1cc(-n2cnc3ccc(CN4CCN(C)CC4)cc32)sc1C(N)=O)c1ccccc1C(F)(F)F [GSK461364]
selectivity for PLK1 than for PLK2 and PLK3 [2]: at least 390 fold
selectivity for PLK1 than for a panel of 48 other kinases [6]: 1000 fold
cell growth inhibition [7]: causes cell growth inhibition in a high percentage of tested cancer cell lines

SMILES: Cc1cc(Nc2cc(N3CCN(C)CC3)nc(Sc3ccc(NC(=O)C4CC4)cc3)n2)[nH]n1 [MK-0457]
Ka^c binding constant ([8]; HSA, 310 K): 1.05 × 10^4 M^–1
ΔG^0 ([8]; HSA, 310 K): –23.02 kJ mol^–1
ΔH^0 ([8]; HSA): –130.63 kJ mol^–1
ΔS^0 ([8]; HSA): –343.89 J K^–1 mol^–1

SMILES: C#Cc1cccc(Nc2ncnc3cc(OCCOC)c(OCCOC)cc23)c1 [Erlotinib]
Ka^c binding constant ([1]; 307 K): 3.44 × 10^2 M^–1

SMILES: Cc1ccc(F)c(NC(=O)Nc2ccc(-c3cccc4[nH]nc(N)c34)cc2)c1 [Linifanib]
Ka^c binding constant ([1]; 308 K): 4.3 × 10^3 M^–1

SMILES: CNC(=O)c1cc(Oc2ccc(NC(=O)Nc3ccc(Cl)c(C(F)(F)F)c3)cc2)ccn1 [Sorafenib]
Ka^c binding constant ([8]; HSA, 305 K): 2.64 × 10^4 M^–1
ΔG^0 ([8]; HSA, 305 K): –25.8 kJ mol^–1
ΔH^0 ([8]; HSA): –28.2 kJ mol^–1
ΔS^0 ([8]; HSA): –7.87 J K^–1 mol^–1

SMILES: Cc1cc(C(=O)Nc2nc3cccc(Cl)c3n2[C@@H]2CCCCN(C(=O)/C=C/CN(C)C)C2)ccn1 [Nazartinib (EGF816), Nazartinib]
Ka^c binding constant ([8]; HSA, 310 K): 2.67 × 10^4 M^–1
ΔG^0 ([8]; HSA, 310 K): –26.27 kJ mol^–1
ΔH^0 ([8]; HSA): –3.22 kJ mol^–1
ΔS^0 ([8]; HSA): 74.36 J K^–1 mol^–1

SMILES: C=CC(=O)N1CCC[C@@H](n2nc(-c3ccc(Oc4ccccc4)cc3)c3c(N)ncnc32)C1 [Ibrutinib]
Ka^c binding constant ([8]; HSA, 310 K): 7.2 × 10^3 M^–1
ΔG^0 ([8]; HSA, 310 K): –25.09 kJ mol^–1
ΔH^0 ([8]; HSA): –16.91 kJ mol^–1
ΔS^0 ([8]; HSA): 26.44 J K^–1 mol^–1

SMILES: C[C@H](Cn1cnc2c(N)ncnc21)OCP(=O)(O)O [tenofovir]
binding constant to HSA ([8]; 310 K): 5.7 × 10^4 M^–1

SMILES: COc1cc2c(Nc3ccc(Br)cc3F)ncnc2cc1OCC1CCN(C)CC1 [Vandetanib]
Ka^c binding constant ([8]; HSA, 303 K): 7.63 × 10^3 M^–1
ΔG^0 ([8]; HSA, 303 K): –22.56 kJ mol^–1
ΔH^0 ([8]; HSA): –6.57 kJ mol^–1
ΔS^0 ([8]; HSA): 52.76 J K^–1 mol^–1

SMILES: CC[C@@H]1C(=O)N(C)c2cnc(Nc3ccc(C(=O)NC4CCN(C)CC4)cc3OC)nc2N1C1CCCC1 [BI-2536]
terminal half-life (up to) ([9]; 1 hour intravenous infusion, 50, 60 and 70 mg on days 1 and 3 of a 21 day course): 20 to 30 h
volume of distribution [9]: 751 to 2200 L
half-life [9, 14]: around 25 hours
half-life, max [9, 14]: 55.1 h
half-life, min [9, 14]: 18.6 h
terminal half-life ([9]; single intravenous infusion, 200 mg over 1 h): 15.4 h
ΔG^0 ([8]; HSA/drug complex, 298 K): –33.6 kJ mol^–1
ΔG^0 ([8]; HSA/drug complex, 303 K): –36.0 kJ mol^–1
ΔG^0 ([8]; HSA/drug complex, 310 K): –39.2 kJ mol^–1
ΔH^0 ([8]; HSA/drug complex): 103.8 kJ mol^–1
ΔS^0 ([8]; HSA/drug complex): 461.3 J K^–1 mol^–1
Ka^c binding constant to HSA [8]: 3.78 × 10^6 M^–1
Ka^u binding constant to HSA [8]: 11.4 × 10^7 M^–1
n^c ± 2σ number of binding sites [8]: 1.30 ± 0.09 and 1.22 ± 0.16 and 1.35 ± 0.16

SMILES: CCOc1cc2ncc(C#N)c(Nc3ccc(OCc4ccccn4)c(Cl)c3)c2cc1NC(=O)/C=C/CN(C)C [Neratinib]
Ka^c binding constant ([8]; HSA, 310 K): 2.25 × 10^5 M^–1

SMILES: COc1cc(C(=O)NC2CCN(C)CC2)ccc1Nc1ncc2c(n1)N(C1CCCC1)CC(F)(F)C(=O)N2C [RO3280]
in vitro cellular potency [10]: high in vitro cellular potency
antitumor activity [11]: significant level of antitumor activity
pKa [3, 12]: 12.6
pKa ([3]; equilibrium to species with charge +3, acidic pH): 3.8
charge state at the physiological pH ([3]; pH 7.4, aqueous solution): +2
